Source: patent US20250188040A1, “PHARMACEUTICAL COMPOSITIONS COMPRISING WRN HELICASE INHIBITORS” (Vividion Therapeutics, Inc., priority 2022, published 2025)
Read-outs that look alike come from different tables or passages of the source.

Columns and labels:
WRN C727 = target: T1, WRN C727 (Homo sapiens, UniProt Q14191); assay: Target engagement, in vitro (lysate), OCI-AML2; assay type: binding; conditions: read-out: OCI-AML2 WRN C727 TE50 in vitro (lysate)
T1 construct: endogenous in cells; host or cells: OCI-AML2
Experimental: Cells or cell lysates were treated with a dose response of compound followed by probe treatment, which labels solvent exposed cysteines. Proteins were enzymatically digested with trypsin and probe-labelled peptides were enriched with streptavidin. Isolated peptides were then separated using reversed-phase liquid chromatography on a C18 column (Dionex Ultimated 3000 nano-LC, Thermo). Peptides were analyzed by parallel reaction monitoring mass spectrometry (Exploris 120, Thermo).
Target engagement (%) is calculated relative to DMSO treated control samples.

[1] = target: hWRN(519-1227)_C-H3CV-GFP-10His (Homo sapiens, UniProt Q14191); assay: Helicase Assay for WRN Inhibition (ATP-dependent, fluorescence based)
[2] = WRN Helicase IC50, 30 min preincubation with ATP, 30 min reaction

hWRN(519-1227)_C-H3CV-GFP-10His, sequence (Q14191 519-1227): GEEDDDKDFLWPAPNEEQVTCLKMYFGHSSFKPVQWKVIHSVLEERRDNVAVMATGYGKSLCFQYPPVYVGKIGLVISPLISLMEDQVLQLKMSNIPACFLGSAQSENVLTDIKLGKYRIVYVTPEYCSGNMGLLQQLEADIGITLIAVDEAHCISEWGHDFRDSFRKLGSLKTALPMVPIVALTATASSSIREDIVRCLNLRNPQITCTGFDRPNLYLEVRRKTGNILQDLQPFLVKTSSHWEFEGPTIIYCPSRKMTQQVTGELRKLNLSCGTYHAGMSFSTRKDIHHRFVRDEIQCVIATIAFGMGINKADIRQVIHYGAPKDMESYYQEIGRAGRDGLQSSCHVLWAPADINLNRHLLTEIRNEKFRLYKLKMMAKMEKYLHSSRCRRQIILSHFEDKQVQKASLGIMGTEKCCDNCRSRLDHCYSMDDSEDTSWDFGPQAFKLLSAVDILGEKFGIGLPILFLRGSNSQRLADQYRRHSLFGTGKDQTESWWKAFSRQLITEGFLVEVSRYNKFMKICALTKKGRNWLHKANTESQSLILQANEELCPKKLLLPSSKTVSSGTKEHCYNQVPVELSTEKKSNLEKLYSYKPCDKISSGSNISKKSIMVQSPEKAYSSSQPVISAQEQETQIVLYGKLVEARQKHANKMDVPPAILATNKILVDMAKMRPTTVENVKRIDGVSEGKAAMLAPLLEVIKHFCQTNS
T1 sequence (Q14191 whole entry): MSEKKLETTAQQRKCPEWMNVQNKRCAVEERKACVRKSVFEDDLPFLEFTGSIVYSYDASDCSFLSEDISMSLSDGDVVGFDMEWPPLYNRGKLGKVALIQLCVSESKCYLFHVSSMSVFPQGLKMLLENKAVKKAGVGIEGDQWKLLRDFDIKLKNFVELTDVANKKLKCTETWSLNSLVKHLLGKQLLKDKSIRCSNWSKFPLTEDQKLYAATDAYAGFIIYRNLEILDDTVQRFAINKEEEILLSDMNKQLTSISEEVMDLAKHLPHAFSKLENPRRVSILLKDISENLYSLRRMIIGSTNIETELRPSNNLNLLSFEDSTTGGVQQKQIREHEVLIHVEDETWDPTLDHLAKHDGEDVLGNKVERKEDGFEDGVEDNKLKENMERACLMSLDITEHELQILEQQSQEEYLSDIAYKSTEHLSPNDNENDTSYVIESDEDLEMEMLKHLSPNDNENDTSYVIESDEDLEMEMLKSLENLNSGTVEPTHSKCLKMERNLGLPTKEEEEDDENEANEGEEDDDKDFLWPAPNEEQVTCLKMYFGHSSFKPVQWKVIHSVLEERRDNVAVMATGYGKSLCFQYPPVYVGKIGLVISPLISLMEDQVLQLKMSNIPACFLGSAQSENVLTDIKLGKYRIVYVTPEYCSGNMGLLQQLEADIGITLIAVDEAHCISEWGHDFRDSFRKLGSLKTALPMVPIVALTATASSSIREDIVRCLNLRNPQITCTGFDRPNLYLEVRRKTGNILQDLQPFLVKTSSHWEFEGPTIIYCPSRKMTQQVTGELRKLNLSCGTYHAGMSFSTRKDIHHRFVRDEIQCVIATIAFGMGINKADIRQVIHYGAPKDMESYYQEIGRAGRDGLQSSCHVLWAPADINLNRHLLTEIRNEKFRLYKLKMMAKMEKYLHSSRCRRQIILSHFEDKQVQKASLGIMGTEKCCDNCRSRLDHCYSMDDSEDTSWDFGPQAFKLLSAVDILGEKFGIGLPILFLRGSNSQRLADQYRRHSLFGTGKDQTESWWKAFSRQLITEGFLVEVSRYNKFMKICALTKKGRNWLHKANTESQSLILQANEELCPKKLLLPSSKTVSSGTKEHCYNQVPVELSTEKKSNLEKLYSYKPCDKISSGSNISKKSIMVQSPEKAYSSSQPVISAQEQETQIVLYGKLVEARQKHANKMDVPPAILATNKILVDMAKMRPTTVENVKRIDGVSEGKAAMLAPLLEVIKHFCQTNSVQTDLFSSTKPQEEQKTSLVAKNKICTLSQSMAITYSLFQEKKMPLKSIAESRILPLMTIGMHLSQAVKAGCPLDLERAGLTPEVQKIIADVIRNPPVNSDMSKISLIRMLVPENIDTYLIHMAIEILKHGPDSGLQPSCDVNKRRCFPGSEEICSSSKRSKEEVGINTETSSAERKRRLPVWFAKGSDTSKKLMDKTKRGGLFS

| Structure (SMILES) | IC50 (WRN C727) [µM] | IC50 [1, 2] [µM] | IC50 [1] [µM] | IC50 ([1]; read-out: WRN Helicase IC50, 30 min preincubation with ATP, 30 min reaction) [µM] |
| --- | --- | --- | --- | --- |
| CC1CC[C@@H](C)N1c1ncc(C(=O)N[C@@H](C)/C=C/S(C)(=O)=O)c(Oc2ccccc2)n1 (stereo in doubt) [Example 172, 2-((2R,5S)-2,5-dimethylpyrrolidin-1-yl)-N—((S,E)-4-(methylsulfonyl)but-3-en-2-yl)-4-phenoxypyrimidine-5-carboxamide] | 31.2 | 13 | – | – |
| O=C(NC1C=CS(=O)(=O)C1)c1cnc(C2CC2)nc1Oc1ccccc1 (stereo not drawn) [Example 27, 2-cyclopropyl-N-(1,1-dioxido-2,3-dihydrothiophen-3-yl)-4-phenoxypyrimidine-5-carboxamide] | – | – | 34 | – |
| CO[C@H](C)[C@@H](/C=C/S(C)(=O)=O)NC(=O)c1cnc(C2CC2)nc1Oc1ccccc1 [Example 32, 2-cyclopropyl-N-((3R,4R,E)-4-methoxy-1-(methylsulfonyl)pent-1-en-3-yl)-4-phenoxypyrimidine-5-carboxamide] | > 100 | 35 | – | – |
| CS(=O)(=O)C1=CCN(C(=O)c2cnc(C3CC3)nc2Oc2ccccc2)C1 [Example 34, (2-cyclopropyl-4-phenoxypyrimidin-5-yl)(3-(methylsulfonyl)-2,5-dihydro-1H-pyrrol-1-yl)methanone] | > 100 | – | 26 | – |
| C[C@@H](/C=C/S(C)(=O)=O)NC(=O)c1cnc(C2Cc3ccccc32)nc1Oc1ccccc1 (stereo partly drawn) [Example 52, 2-(bicyclo[4.2.0]octa-1,3,5-trien-7-yl)-N—((S,E)-4-(methylsulfonyl)but-3-en-2-yl)-4-phenoxypyrimidine-5-carboxamide] | > 100 | 66 | – | – |
| C[C@@H](/C=C/S(C)(=O)=O)NC(=O)c1cnc(C2CCOC2)nc1Oc1ccccc1 (stereo partly drawn) [Example 79, N—((S,E)-4-(methylsulfonyl)but-3-en-2-yl)-4-phenoxy-2-(tetrahydrofuran-3-yl)pyrimidine-5-carboxamide] | > 100 | 18 | – | – |
| Cc1ccccc1Oc1nc(C2CCCC2)ncc1C(=O)N[C@@H](C)/C=C/S(C)(=O)=O [Example 106, (S,E)-2-cyclopentyl-N-(4-(methylsulfonyl)but-3-en-2-yl)-4-(o-tolyloxy)pyrimidine-5-carboxamide] | > 100 | 24 | – | – |
| CCc1ccc(Oc2nc(C3CCCC3)ncc2C(=O)N[C@@H](C)/C=C/S(C)(=O)=O)cc1 [Example 107, (S,E)-2-cyclopentyl-4-(4-ethylphenoxy)-N-(4-(methylsulfonyl)but-3-en-2-yl)pyrimidine-5-carboxamide] | > 100 | 82 | – | – |
| Cc1ccc(Oc2nc(C3CCCC3)ncc2C(=O)N[C@@H](C)/C=C/S(C)(=O)=O)cc1C [Example 109, (S,E)-2-cyclopentyl-4-(3,4-dimethylphenoxy)-N-(4-(methylsulfonyl)but-3-en-2-yl)pyrimidine-5-carboxamide] | > 100 | 183 | – | – |
| C[C@@H](/C=C/S(C)(=O)=O)NC(=O)c1cnc(C2CC2)nc1OC1CC2(CCC2)C1 [Example 141, (S,E)-2-cyclopropyl-N-(4-(methylsulfonyl)but-3-en-2-yl)-4-(spiro[3.3]heptan-2-yloxy)pyrimidine-5-carboxamide] | > 100 | 118 | – | – |
| CC(C)(C)c1ncc(C(=O)NC/C=C/S(C)(=O)=O)c(O[C@H]2C[C@@H]3C[C@@H]3C2)n1 [Example 145, 4-(((1R,3s,5S)-bicyclo[3.1.0]hexan-3-yl)oxy)-2-(tert-butyl)-N—((E)-3-(methylsulfonyl)allyl)pyrimidine-5-carboxamide] | >100 | – | – | 59 |
| C[C@@H](/C=C/S(C)(=O)=O)NC(=O)c1ccc(C2CCCC2)c2cccnc12 [Example 203, (S,E)-5-cyclopentyl-N-(4-(methylsulfonyl)but-3-en-2-yl)quinoline-8-carboxamide] | – | – | 77 | – |
| Cc1c(C2CC2)ncc(C(=O)N[C@@H](C)/C=C/S(C)(=O)=O)c1Oc1ccccc1 [Example 204, (S,E)-6-cyclopropyl-5-methyl-N-(4-(methylsulfonyl)but-3-en-2-yl)-4-phenoxynicotinamide] | – | 96 | – | – |
| C[C@@H](/C=C/S(C)(=O)=O)NC(=O)c1cc2c(cc1Oc1ccccc1)CC(C)(C)C2=O [Example 248, (S,E)-2,2-dimethyl-N-(4-(methylsulfonyl)but-3-en-2-yl)-3-oxo-6-phenoxy-2,3-dihydro-1H-indene-5-carboxamide] | – | – | 63 | – |
| Cn1cnc2cc(C(=O)N[C@H](/C=C/S(C)(=O)=O)C3CC3)c(Oc3ccccc3)nc21 [Example 251, (S,E)-N-(1-cyclopropyl-3-(methylsulfonyl)allyl)-3-methyl-5-phenoxy-3H-imidazo[4,5-b]pyridine-6-carboxamide] | – | 103 | – | – |
| CS(=O)(=O)/C=C/CNC(=O)c1ccc(C2CCCC2)cc1OC1CC1 [Example 283, (E)-4-cyclopentyl-2-cyclopropoxy-N-(3-(methylsulfonyl)allyl)benzamide] | – | 64 | – | – |

More lines, main results first:

| IC50 (WRN C727) [µM] | IC50 [1, 2] [µM] | IC50 [1] [µM] | Structure (SMILES) | IC50 ([1]; read-out: WRN Helicase IC50, 30 min preincubation with ATP, 30 min reaction) [µM] |
| --- | --- | --- | --- | --- |
| > 100 | 54 | – | CC(C)(C)c1ncc(C(=O)NC2(C=CS(C)(=O)=O)CC2)c(Oc2ccccc2)n1 (racemic) [Example 59, 2-(tert-butyl)-N-(1-(2-(methylsulfonyl)vinyl)cyclopropyl)-4-phenoxypyrimidine-5-carboxamide] | – |
| > 100 | 85 | – | C[C@@H](/C=C/S(C)(=O)=O)NC(=O)c1cnc(C2CCCC2)nc1O[C@H]1CCCC[C@H]1O (single isomer, unassigned) [Example 129] | – |
| > 100 | 50 | – | C[C@@H](/C=C/S(C)(=O)=O)NC(=O)c1cnc(C2CCCC2)nc1O[C@@H]1CCCC[C@@H]1O (single isomer, unassigned) [Example 130] | – |
| > 100 | 24 | – | C[C@@H](/C=C/S(C)(=O)=O)NC(=O)c1cnc(C2CCCC2)nc1O[C@H]1CCCC[C@@H]1O (single isomer, unassigned) [Example 131] | – |
| > 100 | 30 | – | C[C@@H](/C=C/S(C)(=O)=O)NC(=O)c1cnc(C2CCCC2)nc1O[C@@H]1CCCC[C@H]1O (single isomer, unassigned) [Example 132] | – |
| 21.8 | 19 | – | Cc1ccc(Oc2nc(C3CCCC3)ncc2C(=O)NC/C=C/S(C)(=O)=O)cc1 [Example 104, (E)-2-cyclopentyl-N-(3-(methylsulfonyl)allyl)-4-(p-tolyloxy)pyrimidine-5-carboxamide] | – |
| > 100 | 44.4 | – | C[C@@H](/C=C/S(C)(=O)=O)NC(=O)c1cnc(C2CCCC2)nc1Oc1ccccn1 [Example 126, (S,E)-2-cyclopentyl-N-(4-(methylsulfonyl)but-3-en-2-yl)-4-(pyridin-2-yloxy)pyrimidine-5-carboxamide] | – |
| > 100 | 53 | – | C[C@@H](/C=C/S(C)(=O)=O)NC(=O)c1cnc(C2CCCC2)nc1O[C@H]1CCCOC1 [Example 134, 2-cyclopentyl-N—((S,E)-4-(methylsulfonyl)but-3-en-2-yl)-4-(((S)-tetrahydro-2H-pyran-3-yl)oxy)pyrimidine-5-carboxamide] | – |
| 75 | 70 | – | C[C@@H](/C=C/S(C)(=O)=O)NC(=O)c1cnc(C2CCCC2)nc1Oc1ccc(O)cc1 [Example 135, (S,E)-2-cyclopentyl-4-(4-hydroxyphenoxy)-N-(4-(methylsulfonyl)but-3-en-2-yl)pyrimidine-5-carboxamide] | – |
| > 100 | 19 | – | C[C@@H](/C=C/S(C)(=O)=O)NC(=O)c1cnc(C2CCCC2)nc1Oc1cccc(N)c1 [Example 138, (S,E)-4-(3-aminophenoxy)-2-cyclopentyl-N-(4-(methylsulfonyl)but-3-en-2-yl)pyrimidine-5-carboxamide] | – |
| 50 | 20 | – | C[C@@H](/C=C/S(C)(=O)=O)NC(=O)c1cnc(C2CC2)nc1OC1CC2(CC2)C1 [Example 142, (S,E)-2-cyclopropyl-N-(4-(methylsulfonyl)but-3-en-2-yl)-4-(spiro[2.3]hexan-5-yloxy)pyrimidine-5-carboxamide] | – |
| – | 53 | – | C[C@@H](/C=C/S(C)(=O)=O)NC(=O)c1cnc(C2CC2)nc1OC1CCC(F)(F)C1 (stereo partly drawn) [Example 146, 2-cyclopropyl-4-((3,3-difluorocyclopentyl)oxy)-N—((S,E)-4-(methylsulfonyl)but-3-en-2-yl)pyrimidine-5-carboxamide] | – |
| – | 110 | – | COC1CN(c2ncc(C(=O)N[C@@H](C)/C=C/S(C)(=O)=O)c(Oc3ccccc3)n2)C1 [Example 169, (S,E)-2-(3-methoxyazetidin-1-yl)-N-(4-(methylsulfonyl)but-3-en-2-yl)-4-phenoxypyrimidine-5-carboxamide] | – |
| – | 27 | – | CS(=O)(=O)/C=C/CNC(=O)c1ccc(C2CCCC2)cc1OC1CCCC1 [Example 198, (E)-4-cyclopentyl-2-(cyclopentyloxy)-N-(3-(methylsulfonyl)allyl)benzamide] | – |
| – | – | 39 | CC1(C)Cc2cc(Oc3ccccc3)c(C(=O)N3CC(=CS(C)(=O)=O)C3)cc2C1=O [Example 249, 2,2-dimethyl-6-(3-((methylsulfonyl)methylene)azetidine-1-carbonyl)-5-phenoxy-2,3-dihydro-1H-inden-1-one] | – |
| – | 116 | – | N#C/C=C/CNC(=O)c1cnc(C2CC2)nc1Oc1ccccc1 [Example 266, (E)-N-(3-cyanoallyl)-2-cyclopropyl-4-phenoxypyrimidine-5-carboxamide] | – |
| – | 29 | – | N#C/C=C\CNC(=O)c1cnc(C2CC2)nc1Oc1ccccc1 [Example 267, (Z)—N-(3-cyanoallyl)-2-cyclopropyl-4-phenoxypyrimidine-5-carboxamide] | – |
